Biological target: CFTR-mediated chloride transport (Homo sapiens, UniProt P13569)
Assay: Corrector Assay A - membrane potential dye assay (enteroid cells)
Details: for Corrector Assay A % activity: % of chloride transport of triple combination control (1 μM (14S)-dispiro macrocycle + 3 μM tezacaftor + 300 nM ivacaftor); for EC50: read-out: Corrector Assay A EC50, human intestinal enteroid cells, 18-24 h incubation, acute 10 μM forskolin + 300 nM ivacaftor

## CC(C)(C)c1ccc2c(n1)N1C[C@@H](CCC(c3ccc(N4CCCCC4)cn3)Nc3cccc(n3)S(=O)(=O)NC2=O)CC1(C)C (some centres unmarked) [Compound 184]
  Corrector Assay A % activity: +++ (+++ is >60%)
  EC50: < 1000 nM

## CC(C)(C)c1ccc2c(n1)N1C[C@@H](CCC(c3ccc(N4CCCCC4)cn3)Nc3cccc(n3)S(=O)(=O)NC2=O)CC1(C)C (some centres unmarked) [Compound 185]
  Corrector Assay A % activity: ++ (++ is 30-60%)
  EC50: < 1000 nM

## CN(C)CCNc1cccc([C@@H]2CC[C@@H]3CN(c4nc(C(C)(C)C)ccc4C(=O)NS(=O)(=O)c4cccc(n4)N2)C(C)(C)C3)n1 [Compound 188]
  Corrector Assay A % activity: ++ (++ is 30-60%)
  EC50: < 1000 nM

## CN(C)CCNc1cccc([C@H]2CC[C@@H]3CN(c4nc(C(C)(C)C)ccc4C(=O)NS(=O)(=O)c4cccc(n4)N2)C(C)(C)C3)n1 [Compound 189]
  Corrector Assay A % activity: ++ (++ is 30-60%)
  EC50: < 1000 nM

## CC(C)(C)c1ccc2c(n1)N1C[C@@H](CC[C@@H](c3cccc(N4CCOCC4)n3)Nc3cccc(n3)S(=O)(=O)NC2=O)CC1(C)C [Compound 190]
  Corrector Assay A % activity: ++ (++ is 30-60%)
  EC50: < 1000 nM

## CC(C)(C)c1ccc2c(n1)N1C[C@@H](CC[C@H](c3cccc(N4CCOCC4)n3)Nc3cccc(n3)S(=O)(=O)NC2=O)CC1(C)C [Compound 191]
  Corrector Assay A % activity: +++ (+++ is >60%)
  EC50: < 1000 nM

## CC1(C)C[C@@H]2CC[C@@H](c3ccccn3)Nc3cccc(n3)S(=O)(=O)NC(=O)c3ccc(C#N)nc3N1C2 [Compound 192]
  Corrector Assay A % activity: + (+ is <30%)
  EC50: 1000 to 3000 nM

## CC1(C)C[C@@H]2CC[C@H](c3ccccn3)Nc3cccc(n3)S(=O)(=O)NC(=O)c3ccc(C#N)nc3N1C2 [Compound 193, (14S,17R)-12,12-dimethyl-2,2,4-trioxo-17-(pyridin-2-yl)-2λ^6-thia-3,9,11,18,23-pentaazatetracyclo[17.3.1.111,14.05,10]tetracosa-1(22),5,7,9,19(23),20-hexaene-8-carbonitrile]
  Corrector Assay A % activity: +++ (+++ is >60%)
  EC50: > 3000 nM

## CN1CCN(c2cccc([C@@H]3CC[C@@H]4CN(c5nc(C(C)(C)C)ccc5C(=O)NS(=O)(=O)c5cccc(n5)N3)C(C)(C)C4)n2)CC1 [Compound 194]
  Corrector Assay A % activity: ++ (++ is 30-60%)
  EC50: < 1000 nM

## CN1CCN(c2cccc([C@H]3CC[C@@H]4CN(c5nc(C(C)(C)C)ccc5C(=O)NS(=O)(=O)c5cccc(n5)N3)C(C)(C)C4)n2)CC1 [Compound 195, (14S,17R)-8-tert-butyl-12,12-dimethyl-17-[6-(4-methylpiperazin-1-yl)pyridin-2-yl]-2λ^6-thia-3,9,11,18,23-pentaazatetracyclo[17.3.1.111,14.05,10]tetracosa-1(22),5,7,9,19(23),20-hexaene-2,2,4-trione]
  Corrector Assay A % activity: +++ (+++ is >60%)
  EC50: < 1000 nM

## CC(C)(C)c1ccc2c(n1)N1C[C@@H](CCC(c3ccc(CN)cn3)Nc3cccc(n3)S(=O)(=O)NC2=O)CC1(C)C (some centres unmarked) [Compound 196]
  Corrector Assay A % activity: +++ (+++ is >60%)
  EC50: < 1000 nM

## CC(C)(C)c1ccc2c(n1)N1C[C@@H](CCC(c3ccc(N4CCOCC4)cn3)Nc3cccc(n3)S(=O)(=O)NC2=O)CC1(C)C (some centres unmarked) [Compound 198]
  Corrector Assay A % activity: +++ (+++ is >60%)
  EC50: < 1000 nM

## CC(C)(C)c1ccc2c(n1)N1C[C@@H](CCC(c3ccc(N4CCOCC4)cn3)Nc3cccc(n3)S(=O)(=O)NC2=O)CC1(C)C (some centres unmarked) [Compound 199]
  Corrector Assay A % activity: +++ (+++ is >60%)
  EC50: < 1000 nM

## CN1CCN(c2ccc(C3CC[C@@H]4CN(c5nc(C(C)(C)C)ccc5C(=O)NS(=O)(=O)c5cccc(n5)N3)C(C)(C)C4)nc2)CC1 (some centres unmarked) [Compound 200]
  Corrector Assay A % activity: +++ (+++ is >60%)
  EC50: < 1000 nM

## CN1CCN(c2ccc(C3CC[C@@H]4CN(c5nc(C(C)(C)C)ccc5C(=O)NS(=O)(=O)c5cccc(n5)N3)C(C)(C)C4)nc2)CC1 (stereo partly drawn) [Compound 201, (14S)-8-tert-butyl-12,12-dimethyl-17-[5-(4-methylpiperazin-1-yl)pyridin-2-yl]-2λ^6-thia-3,9,11,18,23-pentaazatetracyclo[17.3.1.111,14.05,10]tetracosa-1(23),5(10),6,8,19,21-hexaene-2,2,4-trione]
  Corrector Assay A % activity: +++ (+++ is >60%)
  EC50: < 1000 nM

## CC(C)(C)c1ccc2c(n1)N1C[C@@H](CC[C@@H](c3cccc(CN)n3)Nc3cccc(n3)S(=O)(=O)NC2=O)CC1(C)C [Compound 202]
  Corrector Assay A % activity: ++ (++ is 30-60%)
  EC50: < 1000 nM

## CC(C)(C)c1ccc2c(n1)N1C[C@@H](CC[C@H](c3cccc(CN)n3)Nc3cccc(n3)S(=O)(=O)NC2=O)CC1(C)C [Compound 203, (14S,17R)-17-[6-(aminomethyl)pyridin-2-yl]-8-tert-butyl-12,12-dimethyl-2λ^6-thia-3,9,11,18,23-pentaazatetracyclo[17.3.1.111,14.05,10]tetracosa-1(22),5,7,9,19(23),20-hexaene-2,2,4-trione]
  Corrector Assay A % activity: +++ (+++ is >60%)
  EC50: < 1000 nM

## CC(C)(C)c1ccc2c(n1)N1C[C@@H](CCC(c3ccc(C#N)cn3)Nc3cccc(n3)S(=O)(=O)NC2=O)CC1(C)C (some centres unmarked) [Compound 204]
  Corrector Assay A % activity: +++ (+++ is >60%)
  EC50: < 1000 nM

## CC(C)(C)c1ccc2c(n1)N1C[C@@H](CC[C@@H](c3cccc(C#N)n3)Nc3cccc(n3)S(=O)(=O)NC2=O)CC1(C)C [Compound 210]
  Corrector Assay A % activity: ++ (++ is 30-60%)
  EC50: < 1000 nM

## CC(C)(C)c1ccc2c(n1)N1C[C@@H](CC[C@H](c3cccc(C#N)n3)Nc3cccc(n3)S(=O)(=O)NC2=O)CC1(C)C [Compound 211, 6-[(14S,17R)-8-tert-Butyl-12,12-dimethyl-2,2,4-trioxo-2λ^6-thia-3,9,11,18,23-pentaazatetracyclo[17.3.1.111,14.05,10]tetracosa-1(22),5,7,9,19(23),20-hexaen-17-yl]pyridine-2-carbonitrile]
  Corrector Assay A % activity: +++ (+++ is >60%)
  EC50: < 1000 nM

## CC(C)(C)c1ccc2c(n1)N1C[C@@H](CCC(C3CCN(c4ncccn4)CC3)Nc3cccc(n3)S(=O)(=O)NC2=O)CC1(C)C (stereo partly drawn) [Compound 218, (14S)-8-tert-butyl-12,12-dimethyl-17-[1-(pyrimidin-2-yl)piperidin-4-yl]-2λ^6-thia-3,9,11,18,23-pentaazatetracyclo[17.3.1.111,14.05,10]tetracosa-1(23),5(10),6,8,19,21-hexaene-2,2,4-trione]
  Corrector Assay A % activity: ++ (++ is 30-60%)
  EC50: < 1000 nM

## COCCN1CCC2(CC1)CC(NC(=O)[C@@H]1CC[C@@H]3CN(c4nc(C(C)(C)C)ccc4C(=O)NS(=O)(=O)c4cccc(n4)N1)C(C)(C)C3)C2 [Compound 221]
  Corrector Assay A % activity: + (+ is <30%)
  EC50: > 3000 nM

## CC(C)(C)c1ccc2c(n1)N1C[C@@H](CC[C@@H](C(=O)NC3CC4(CCNCC4)C3)Nc3cccc(n3)S(=O)(=O)NC2=O)CC1(C)C [Compound 223]
  Corrector Assay A % activity: + (+ is <30%)

## CC(C)(C)OC(=O)N1CCC2(CC1)CC(NC(=O)[C@@H]1CC[C@@H]3CN(c4nc(C(C)(C)C)ccc4C(=O)NS(=O)(=O)c4cccc(n4)N1)C(C)(C)C3)C2 [Compound 227]
  Corrector Assay A % activity: + (+ is <30%)
  EC50: 1000 to 3000 nM

Source: patent US20220313698A1, “MODULATORS OF CYSTIC FIBROSIS TRANSMEMBRANE CONDUCTANCE REGULATOR” (Vertex Pharmaceuticals Incorporated, priority 2019, published 2022)
